# From ChEMBL document CHEMBL4888484, “Replenishing the malaria drug discovery pipeline: Screening and hit evaluation of the MMV Hit Generation Library 1 (HGL1) against asexual blood stage Plasmodium falciparum ,using a nano luciferase reporter read-out” (2022)
# Legend:
# Plasmodium falciparum [1] = experiment: Hit confirmation in dose-response curve in Dd2 pLDH assay, at 72h; assay type: functional, organism-based; parameters: timepoint 72 hour; details: Dd2, Erythrocyte
# Plasmodium falciparum [2] = experiment: Hit confirmation in dose-response curve in NF54 nanoGlo assay, at 72h; assay type: functional, organism-based, Erythrocyte; parameters: timepoint 72 hour; details: Plasmodium falciparum, NF54, Erythrocyte, 72 h
# Plasmodium falciparum [3] = experiment: Hit confirmation in dose-response curve in NF54 pLDH assay, at 72h; assay type: functional, organism-based; parameters: timepoint 72 hour; details: NF54, Erythrocyte
# Plasmodium falciparum [4] = experiment: Hit confirmation in dose-response curve in NF54 nanoGlo assay, at 12h; assay type: functional, organism-based, Erythrocyte; parameters: timepoint 12 hour; details: Plasmodium falciparum, NF54, Erythrocyte, 12 h
# [5] = Hit confirmation in dose-response curve in HepG2 cytotoxicity assay, at 72h; assay type: toxicity, cell-based; parameters: timepoint 72 hour; details: human, HepG2 cells
SMILES,IC50 (Plasmodium falciparum [1]) [µM],IC50 (Plasmodium falciparum [2]) [µM],IC50 (Plasmodium falciparum [3]) [µM],IC50 (Plasmodium falciparum [4]) [µM],IC50 at 72 h [5] [µM]
CCc1ccc(CN2CCC[C@H](c3ncc[nH]3)C2)nc1,1.78,1.15,1.55,10.7,> 10
COc1ccc(CN(Cc2ccncc2)CC2CCN(C3CCN(C)CC3)CC2)c(F)c1,1.17,1.29,1.45,2.82,> 10
Cc1cnccc1NCCNC1CCN(c2ccc(Cl)cc2)CC1,0.372,0.316,0.363,0.417,5.25
Cc1cc(N2C[C@H]3CC[C@@H](C2)[C@H]3N(C)C)nc(Nc2cccc(O)c2)n1,1.78,1.51,2.04,5.01,> 10
C[n+]1ccc(-c2ncc(-c3ccccc3)o2)c2ccccc21,1.51,0.759,1.41,6.17,> 10
Cc1ccc(OCCNc2cc([C@H]3C[C@H](N)C3)nc(C3CC3)n2)cc1C,4.37,3.31,4.47,5.62,> 10
Oc1cccc(CN2CCC3(CC2)C[C@H](c2ccccc2)CN(C2CC2)C3)c1,6.31,3.24,6.31,5.13,> 10
O=C1c2ccccc2C(c2ccc(NC(=O)c3cccc4ccccc34)cc2)(c2ccc(NC(=O)c3cccc4ccccc34)cc2)c2ccccc21,1.58,0.871,4.47,> 10,> 10
CC1(C)Cc2nc3ccccc3c(NCc3ccccc3)c2[C@@H](O)C1,2.63,2.34,3.98,4.37,> 10
Oc1cc(CC[C@H]2CCCCN2)cc(-c2cnc3ccccc3n2)c1,1.95,1.58,2.75,2.09,> 10
Cc1nnc(NC(c2cnc3ccccc3c2)[C@H]2C[C@@H](O)C2)s1 (stereo not given in full),> 10,4.07,> 10,1.58,> 10
C=CCCC(CN1C[C@H]2CC=CC[C@H]2C1)Oc1ncc(F)cn1 (stereo not given in full),> 10,0.0178,0.0224,7.41,> 10
COC(=O)c1c(NC(C)=O)c2cc(NC3CCOCC3)cnc2n1CCc1ccc(OC)cc1,> 10,> 10,> 10,> 10,> 10
N[C@H]1C[C@@H](c2cc(N3CCN(C4CCCCC4)CC3)nc(N3CCCC3)n2)C1,2.29,2,4.17,5.75,> 10
CN1CCN(Cc2cc3cc4c(cc3nc2-c2ccc(Cl)cc2)OCO4)CC1=O,> 10,4.07,> 10,4.47,> 10
CCc1cc(N2C[C@@H]3NC(=O)CN(C)Cc4ccc(OC)c(c4)Oc4cccc(c4)CO[C@H]3C2)nc(N(C)C)n1,3.47,2.04,3.47,4.79,> 10
COc1nc(N2[C@@H]3CC[C@H]2C[C@@H](OC)C3)ncc1F,> 10,4.07,6.17,> 10,> 10
Cc1cccc2c(-c3cc(N)nc(N)n3)c[nH]c12,1.1,1,1.2,3.16,> 10
O=C1NC(c2ccccc2)=NC12CCN(Cc1c(F)cccc1F)CC2,4.27,2.09,6.46,> 10,> 10

SMILES,IC50 (Plasmodium falciparum [1]) [µM],IC50 (Plasmodium falciparum [2]) [µM],IC50 (Plasmodium falciparum [3]) [µM],IC50 (Plasmodium falciparum [4]) [µM],IC50 at 72 h [5] [µM]
Cn1c(Cc2n[n+]3c(-c4ccccc4)cc(-c4ccccc4)nc3n2C)n[n+]2c(-c3ccccc3)cc(-c3ccccc3)nc12,0.234,0.257,0.331,1.74,4.79
CC[n+]1ccc(-c2ncc(-c3ccc(C(C)(C)C)cc3)o2)cc1,0.417,0.589,0.182,> 10,> 10
COc1ccc(-c2cc(-c3ccccc3)nc(N3CCC(C)CC3)n2)cc1,> 10,9.55,> 10,> 10,> 10
CN1CCN([C@H]2CCN(c3ccnc4ccc(Cl)cc34)C[C@H]2CCCO)CC1,1.48,1.74,2.14,2.95,> 10
CNC(=O)[C@@H]1C[C@H](NCc2cc(OC)c(OC)c(OC)c2)CN1CC(c1ccccc1)c1ccccc1,2.82,2.14,3.63,3.63,> 10
Cc1cc(OC[C@@H](O)CNC(C)(C)CC(C)(C)C)cc(C)c1Cl,4.07,2.4,8.32,4.37,10.5
CCN1CCN(C2CCN(c3ncc(F)c(OC)n3)CC2)CC1,> 10,2.57,3.89,> 10,> 10
Nc1nc(N2CCN(c3ccc(F)c(Cl)c3)CC2)cc([C@H]2C[C@@H](N)C2)n1,6.31,2.75,5.75,6.31,> 10
O[C@H]1CNCC[C@@H]1Nc1cc(-c2ccccc2)nc2ccccc12,1.78,2,3.8,8.51,> 10
CN(Cc1ccc(-c2ccccc2)cc1)c1cc([C@H]2C[C@@H](N)C2)nc(N)n1,3.24,2.19,4.17,3.98,> 10
COc1c(C)cc(C(=O)[C@H]2CCCN(c3cc(N)ncn3)C2)cc1C,> 10,5.37,> 10,5.5,> 10
COc1ccc(CNCCC2C(C)CN(C)C(C)C2Cc2ccccc2)cc1 (stereo not given),2.63,1.66,3.63,4.07,> 10
N[C@H]1C[C@H](c2cc(NCCCc3cccnc3)nc(C3CC3)n2)C1,2.04,1.58,2,3.55,> 10
CC(CC1OCC(C[N+]2(Cc3ccccc3)CCCCC2)O1)CC(C)(C)C (stereo not given),2.51,0.912,2.04,> 10,> 10
Cc1nc(N2CCC(c3nc(-c4ccccc4)no3)CC2)c2c(C)noc2n1,> 10,2.51,> 10,1.86,> 10
CN1CCC(N2CCC(CN(Cc3ccncc3)Cc3c(F)cccc3Cl)CC2)CC1,0.603,0.708,1.17,1.74,> 10
O=C(N[C@H]1CC[C@@H]2CCC[C@@H]21)c1c[nH]c(=O)c(Cl)c1,5.13,2.19,3.98,2.45,> 10
N#Cc1cccc(-c2n[nH]c3c2CN(c2ccc(-c4ccccc4)nn2)CC3)c1,3.09,1.2,4.79,2.63,> 10
